Entries after “also recorded” stand apart in the source; their conditions may differ.
Tests used:
Assay type in all cases: cell-based
[1] = tested on: Malassezia sympodialis; assay: Disc diffusion growth inhibition assay (supernatants); details: 6 mm discs soaked with 15 ul supernatant or ketoconazole 1 mg/ml in DMSO; soft agar lawn; 5 days incubation
Description: (§1) FIG. 1|Inhibition assays of the fungicide ketoconazole as positive control for inhibition and Kazachstania unispora supernatant on M. sympodialis, M. furfur, M. restricts and M. globosa. Inhibition assays were performed using the disc diffusion method. Discs were soaked with ketoconazole (1 mg/ml) or K. unispora supernatant and placed on agar plates containing a soft layer inoculated with a single culture of the different Malassezia species to be tested.
(§2) In order to identify strains inhibiting Malassezia growth, inhibition assays were performed using the disc diffusion method. This method consists in disposing discs imbibed with potential inhibitory substances on Petri plates containing a strain of interest. After optimal growth of the strain of interest, growth inhibition can be observed around discs soaked with substances having an inhibitory effect. Potential inhibitory substances tested in this experiment are supernatants obtained after individually culturing a collection of fungal and bacterial strains. After an incubation of 10 days in their optimal broth, each culture was centrifuged and the supernatant was filtered and further stored at −20° C. Ketoconazole, a fungicide, was used as a positive control for Malassezia growth inhibition. It was diluted in dimethyl sulfoxide at 1 mg/ml. The collection of supernatants was tested on the following species from the genus Malassezia: Malassezia restricta, Malassezia globosa, Malassezia furfur and Malassezia sympodialis. All strains were streaked from −80° C. stock on Modified Leeming and Notman (MLN) agar plates and incubated 10 days at 30° C. A 5 ml liquid culture of each species was made in MLN broth and incubated at 30° C. for 2 days for M. furfur and M. sympodialis and 5 days for M. restricta and M. globosa. To allow a lawn growth of the different Malassezia strains tested, Petri plates were prepared as follows: a bottom layer of 50 ml Modified Sabouraud Dextrose (MSD) agar was poured in Petri plates. The soft agar, constituting the top layer, was a mix of 12.5 ml MSD agar, 10.5 ml MLN broth and 2 ml of liquid culture. Plates were allowed to dry for one hour, then, 6 mm-diameter Whatman™ discs were soaked with 15 ul of each thawed supernatants and ketoconazole and placed on the soft agar plate containing the solidified Malassezia monoculture layer. After an incubation of 5 days, inhibition area could be easily observed around discs. As expected, ketoconazole inhibited all 4 Malassezia species tested in this experiment. […] The strain from which the inhibitory supernatant has been produced was further sequenced using the Sanger technology. The internal transcribed spacer (ITS) of this strain was taxonomically assigned to the yeast Kazachstania unispora (BLASTn, 99% identity, 99% query cover, e-value 0.00).

[2] = tested on: Malassezia restricta; assay: as above; details: 6 mm discs soaked with 15 ul supernatant or ketoconazole 1 mg/ml in DMSO; soft agar lawn; 5 days incubation
Description: as §1, §2

[3] = tested on: Malassezia globosa; assay: as above; details: 6 mm discs soaked with 15 ul supernatant or ketoconazole 1 mg/ml in DMSO; soft agar lawn; 5 days incubation
Description: as §1, §2

[4] = tested on: Malassezia furfur; assay: as above; details: 6 mm discs soaked with 15 ul supernatant or ketoconazole 1 mg/ml in DMSO; soft agar lawn; 5 days incubation
Description: as §1, §2

[5] = tested on: Malassezia restricta; assay: Modified disc diffusion assay with living Acetobacter culture; details: 6 mm discs soaked with 15 ul exponentially growing Acetobacter culture or ketoconazole 1 mg/mL in DMSO; 5 days incubation
Description: (§3) FIG. 1|Inhibition assays of M. restricts and M. globose by growth of Acetobacter fabarum. Discs were soaked with ketoconazole (1 mg/ml in DMSO) or exponentially growing Acetobacter fabarum culture and placed on agar plates containing a soft layer inoculated with a single culture of the different Malassezia species to be tested. In the upper panel, inhibition of Malassezia globosa is shown; in the bottom panel, Malassezia restricta is shown.
(§4) In order to identify strains whose growth inhibits Malassezia, inhibition assays were performed using a modified disc diffusion method. This method is similar to the classical disk diffusion method that consists in depositing discs imbibed with potential inhibitory substances on Petri plates containing a strain of interest, except that the disks were imbibed with a living culture of an Acetobacter strain. After optimal growth of the strain of interest, growth inhibition can be observed around discs on which the growth of inhibitory bacteria has occurred. Ketoconazole (at 1 mg/mL in DMSO) was used as a positive control for Malassezia growth inhibition. The effect of growth of Acetobacter was tested on Malassezia restricta and Malassezia globosa. All Malassezia strains were streaked from −80° C. stock on Modified Leeming and Notman (MLN) agar plates and incubated 10 days at 30° C. […]

[6] = tested on: Malassezia globosa; assay: as above; details: 6 mm discs soaked with 15 ul exponentially growing Acetobacter culture or ketoconazole 1 mg/mL in DMSO; 5 days incubation
Description: as §3, §4

CC(=O)N1CCN(c2ccc(OCC3COC(Cn4ccnc4)(c4ccc(Cl)cc4Cl)O3)cc2)CC1 (stereo not drawn) [ketoconazole]
growth inhibition (inhibition halo around disc) of Malassezia sympodialis [1]: inhibits growth; also recorded: inhibited | growth inhibition (inhibition halo around disc) of Malassezia restricta [2]: inhibits growth; also recorded: inhibited | growth inhibition (inhibition halo around disc) of Malassezia globosa [3]: inhibits growth; also recorded: inhibited | growth inhibition (inhibition halo around disc) of Malassezia furfur [4]: inhibits growth; also recorded: inhibited | growth inhibition (inhibition halo around disc) of Malassezia restricta [5]: inhibits growth; also recorded: inhibited | growth inhibition (inhibition halo around disc) of Malassezia globosa [6]: inhibits growth; also recorded: inhibited
